Where a SMILES comes first, the peptide text is derived from it. The star is where a group is joined. Cbz = O=C(OCc1ccccc1)*
Assays:
[1] = test system: Mart-1 (26-35) specific CTLs; test: IFN-gamma production of Mart-1 specific CTLs cocultured with moDCs or PDC loaded with supernatant; assay type: cell-based, human
Description: To generate peptide-specific CTLs from PBMC, 106 PBMC HLA-A2+ were cultured in 1 mL of RPMI 1640 medium (supplemented with 5% human serum, 2 mM L-Glutamine, 100 U/mL Penicillin, 100 μg/mL Streptomycin, 10 μg/mL Gentamicin, 10 μg/mL beta-mercaptoethanol and 1% nonessential amino acids) in 24-well-plates. To this, 2×106 Mart-1-pulsed and irradiated (10 Gy) PBMC (HLA-A2) were added as antigen presenting cells in the same medium supplemented with 100 U/mL IL-2. To pulse PBMC they were incubated for 90 minutes at 37° C. in RPMI supplemented with 50 μM of peptide. After incubation, cell were washed twice and irradiated before mixing with the responding cells. The cells were stimulated at intervals of 10 days with irradiated peptide-pulsed autologous PBMC and 100 U/mL IL-2.
To evaluate the release of antigenic peptides inventors infected human melanoma cells SKmel24 and 624.38 with Salmonella TY21a in presence or not of heptanol and the supernatant was harvested as described in Materials and Methods.
After 72 hours of coculture, the amount of IFN-gamma secretion was measured by ELISA.

Salmonella SL3261AT = test: Antibody response (total IgG, ELISA) to Salmonella after immunization with supernatant in IFA; assay type: in vivo, mice; conditions: B16 cells treated with inhibitor before supernatant collection
Description: (§1) Mice were immunized subcutaneusly with 100 μL of emulsion with supernatant containing released peptides and either Freund's Complete Adjuvant (CFA) or Freund's Incomplete Adjuvant (IFA). Nine days after the immunization, mice were killed, popliteal lymph nodes were smashed and cells were plated in flat-bottom 96-well plates and stimulated with PPD (3 μg/mL), OVA protein (30 μg/mL), OVA peptide 323-339 (3 μg/mL) or OVA peptide 257-264 (3 μg/mL). After 72 hours, the supernatant was collected and IFN-γ production was measured by ELISA.
(§2) To evaluate antibody response mice were killed four weeks after immunization, and serum was collected. The antibody titer to Salmonella and B16 antigens was evaluated by ELISA.
(§3) In order to identify the type of released tumor antigens, C57BL/6J mice were immunized subcutaneously with supernatant obtained from Salmonella infected or uninfected B16 cells treated or not with the gap-junction blocker (heptanol) or the proteasome inhibitor (MG132), emulsified with Freund's Incomplete adjuvant (IFA). Four weeks later inventors evaluated the amount of total IgG specific to Salmonella SL3261AT and to mouse melanoma cell line B16 by ELISA.

[2] = test system: mouse melanoma cell line B16; test: Antibody response (total IgG, ELISA) to B16 after immunization with supernatant in IFA; assay type: in vivo, mice; conditions: B16 cells treated with inhibitor before supernatant collection
Description: as §1, §2, §3

[3] = biological target: T1, connexin hemichannels on the surface of melanoma cells (Mus musculus, UniProt P23242); test: Adenosine 5'-triphosphate (ATP) bioluminescent assay, extracellular ATP of B16 and B16 OVA cells; assay type: cell-based; conditions: B16 and B16 OVA cells pretreated with heptanol (1 mM)
T1 construct: opening of connexin hemichannels on the surface of melanoma cells; endogenous in cells; host or cells: B16 and B16 OVA mouse melanoma cells
T1 sequence (P23242 2-382): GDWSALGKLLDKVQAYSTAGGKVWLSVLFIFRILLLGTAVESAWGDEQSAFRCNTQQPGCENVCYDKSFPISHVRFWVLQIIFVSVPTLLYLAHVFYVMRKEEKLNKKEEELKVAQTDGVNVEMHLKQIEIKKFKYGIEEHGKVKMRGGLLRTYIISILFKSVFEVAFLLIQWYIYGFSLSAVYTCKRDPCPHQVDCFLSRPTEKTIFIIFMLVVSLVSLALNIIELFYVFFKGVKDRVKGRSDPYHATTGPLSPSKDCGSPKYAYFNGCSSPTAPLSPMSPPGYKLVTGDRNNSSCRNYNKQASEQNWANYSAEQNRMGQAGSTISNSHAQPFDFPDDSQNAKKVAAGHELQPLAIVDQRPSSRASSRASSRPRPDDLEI
Description: Single bacterial colonies were grown overnight and restarted the next day to reach an absorbance at 600 nm ranging between 0.550 and 0.650 corresponding to 0,550-0,650×10^9 colony—forming units (CFUs)/mL. Tumor cells were incubated with or without Gap Junctions blocker, Heptanol (1 mM) for 1 hour and half at 37° C. Then, cells were incubated with bacteria for 1 hour and half at 37° C. at a cell-to-bacteria ratio of 1:50, in the appropriate medium without antibiotics. After incubation, the cells were washed and incubated at 37° C. in medium supplemented with gentamicin ([…]) for 2 hours. […]
Adenosine 5′-triphosphate (ATP) Biolumescent Assay (CellTiter-Glo Luminescent cell viability Assay, Promega) allow to measure the quantity of ATP containing in the samples. […]
Briefly, 100 μL of Assay Mix solution were added to a reaction vial for 3 minutes at room temperature; then rapidly were added […] of sample diluent, mixed and immediately measured the amount of light produced. […]
In order to assess whether Salmonella is able to stimulate the opening of connexin hemichannels on the surface of melanoma cells, inventors measured ATP extracellular concentration using an adenosine 5′-thriphosfate (ATP) bioluminescent assay (as described in Materials and Methods) in Salmonella treated B16 cells. […]

C57BL/6J mice = test: In vivo immunization with supernatant in CFA, IFN-gamma after in vitro recall of lymph node cells; conditions: B16 OVA cells treated with heptanol
Description: Mice were immunized subcutaneusly with 100 μL of emulsion with supernatant containing released peptides and either Freund's Complete Adjuvant (CFA) or Freund's Incomplete Adjuvant (IFA). […] After 72 hours, the supernatant was collected and IFN-γ production was measured by ELISA.
To investigate whether the tumor peptides released from infected tumor cells could induce an in vivo immune response, C57BL/6J mice were immunized in the footpad with supernatant, obtained from B16 OVA cells infected or not with Salmonella SL3261AT, emulsified with Freund's complete adjuvant (CFA).
Briefly, nine days after immunization, the popliteal lymph nodes were removed and cells were stimulated in vitro with PPD (Tuberculin purified protein derivated), as a positive control, and OVA protein. After 72 hours of incubation, the amount of IFN-gamma secretion was assessed by ELISA to evaluate the activation of immune cells.

[4] = test system: MHC class I complex on the surface of T2 cells; test: T2 assay for peptide binding (stabilization of HLA-A0201 on T2 cells); assay type: cell-based, human; conditions: tumor cells treated with the gap junction blocker before infection
Description: The next day, the cells were washed with FACS buffer (PBS, 0.1% sodium azide, 5% fetal bovin serum) and incubated for 10 min with blocking buffer (200 μg/mL mouse IgG in FACS buffer). Then, the cells were incubated for 20 minutes at +4° C. with BB7.2, an HLA-A2 conformation specific mouse antibody. The cells were washed twice with FACS buffer and fixed in paraformaldehyde for later acquisition by Accuri C6 Flow Cytometer (BD).
In order to investigate the release of MHC class I peptides by Salmonella infected tumor cells, inventors exploited the ability of exogenous peptides to stabilize the MHC class I complex on the surface of T2 cells. T2 are an HLA-A0201 hybrid human cell line lacking TAP-2 (transporter-associated with antigen processing) and consequently are defective in loading class I molecules with antigenic peptides generated in the cytosol. This leads to very unstable MHC class I molecules on the cell surface. […]
Briefly, inventors infected human melanoma cells SKmel-24 and colorectal adenocarcinoma cells HT29, with Vivofit®, an oral typhoid vaccine that contains live, attenuated cells of the bacteria Salmonella enterica serovar Thyphi (TY21a), and inventors collected the supernatant as described in Materials and Methods. […] Surface expression of HLA-A0201 was evaluated using a conformation-specific mouse antibody, as described in Materials and Methods.

Compound | Response of CTLs after exogenous addition of peptide ([1]; exogenous addition to blocker-treated condition) | Effect on antibody response to Salmonella antigens (Salmonella SL3261AT) | Effect on antibody response to B16 tumor peptides [2] | Effect on Salmonella-induced release of extracellular ATP [3] | Effect on IFN-gamma production induced by supernatant immunization (C57BL/6J mice) | Effect on CTL activation by supernatant of infected melanoma cells ([1]; tumor cells treated with the gap junction blocker) | Effect on the MFI increase by supernatant of infected tumor cells [4]
Mart-1 (26-35): Mart-1 (26-35) peptide, positive control | restored completely the response |  |  |  |  |  | 
CC(C)C[C@@H](C=O)NC(=O)[C@H](CC(C)C)NC(=O)[C@H](CC(C)C)NC(=O)OCc1ccccc1 [MG132] (Cbz-Leu-Leu-Leu-aldehyde) |  | reduced | reduced |  |  |  | 
CCCCCCCO [heptanol] |  | reduced | reduced | significantly reduced | reduced | significantly inhibits | abolished
